Test results: patent US20060276440A1, “Treatment of inflammatory disorders” (priority 2005, published 2006)
pIC50: −log10 of the molar value. Entries after “also recorded” stand apart in the source; their conditions may differ.

How the values were obtained:
Format in all cases: cell-based, human
OSM signaling = assay: […] 4A1 cell line (A549) OSM-stimulated luciferase reporter assay; conditions: Homo sapiens, A549; 4A1 cell line; primary screen (Table 1); read-out: IC50, inhibition of OSM-stimulated (luciferase) reporter activity
Description: Cell line 4A1 was established in A549 cells (a human lung cancer cell line) using BV32, a vector that carries both the luciferase and GFP reporters. Assay development was performed to optimize the conditions of the OSM-response in the 4A1 […]® line.
Reporter activities of Sentinel® clones were measured using the Steady-Glo® Luciferase assay system (Promega, Madison, Wis.), according to the manufacturer's instructions, and were normalized to cell numbers based on nucleic acid quantification (CyQuant® cell proliferations assay, Molecular Probes/Invitrogen, Carlsbad, Calif.). In order to identify potential anti-inflammatory compounds, the OSM-responding Sentinel® clone 4A1 was used for a library screen of approximately 1800 compounds.

MMP-13 = assay: IL-1/OSM-stimulated pro-MMP-13 production in SW-1353 cells (ELISA); conditions: Homo sapiens, SW1353; SW-1353; IL-1/OSM-stimulated; secondary screen (Example 2); read-out: IC50, inhibition of MMP-13 (pro-MMP-13) production
Excerpt: To test the compounds identified in the preliminary reporter (luciferase) activity […]® line 4A1 screen for inhibition of OSM signaling in a more physiologically relevant environment, a human cell line involved in an inflammatory disease was adapted. The human cartilage cell line SW-1353 was selected.
In the human cartilage cell line SW-1353, while IL-1 is believed to activate expression of collagenases to a small degree and OSM is believed to have no effect on collagenase expression, a combination of IL-1 and OSM is believed to lead to a synergistic activation of collagenases to much higher levels (S. Cowell et al., Biochem J 331 (Pt 2), 453 (Apr. 15, 1998). Regulation of MMP-13 in SW-1353 cells is, therefore, believed to provide a biomarker which can be used to monitor IL-1/OSM-mediated signal transduction events in secondary assays.
(§1) The same supernatants of culture media used in the primary screen were assayed for IL-1/OSM-stimulated pro-MMP-13 production and MMP-2 production by enzyme-linked immunosorbent assay (ELISA).
(§2) For matrix metalloproteinase (MMP) measures, SW1353 cells were grown to confluence in 24 well plates, washed in DMEM (with Ham's F12) and placed in 500 ul of serum free DMEM/F-12 with 0.2% lactalbumin hydrosylate with and without OsM/IL-1. After 24 hrs, supernatants were collected and the amounts of proMMP13, totalMMP2, and proMMP1 were measured using Quantikine® ELISA kit for human MMPs (R & D systems, Minneapolis, Minn.). All MMP measures were normalized to viable cell numbers based on a tetrazolium (MTS) colorimetric measure (Promega, Madison, Wis.).

MMP-2 = MMP-2 production in SW1353 cells (ELISA, control); conditions: SW-1353; FIG. 5
Description: MMP-2 production can be used as control for the potential side-effects of compounds. This is because MMP-2 levels are not believed to change in response to IL-1/OSM.
as §1, §2
(§3) Multiple control assays were performed to investigate the selectivity of CA4 action. Matrix metalloproteinase-2 (MMP-2) production in SW1353 cells was tested. Mutation of MMP-2 causes a multicentric osteolysis and arthritis syndrome (Martignetti et al., Nat Genet 28, 261-265 (2001) the entire contents of which are incorporated herein by reference), and theoretically its expression should not be affected in treating RA. CA4 at approximately 110 nM had no effect on production of MMP-2 (FIG. 12E). An A549 Sentinel line that responded to TGF-β was then tested.

TGF-β = assay: A549 Sentinel line TGF-β-stimulated reporter activity; conditions: inhibitor of TGF-β receptor, control
Description: as §3

pIC50 (OSM signaling) | pIC50 (MMP-13) | Compound | inhibitory effect on MMP-13 expression compared to MMP-2 expression (MMP-2) | effect on TGF-β-induced reporter activity (TGF-β)
7.92 | 8.22 | CC(C)C1=CC2=CCC3[C@](C)(C(=O)O)CCC[C@@]3(C)[C@@H]2CC1 (stereo in doubt) [Abietic acid (2), abietic acid] | greater inhibitory effects on MMP-13 expression compared to MMP-2 expression; also recorded: preferentially inhibit MMP-13 expression compared to MMP-2 expression | –
5.48 | 6.22 | C=C(C)[C@H]1CC[C@@]2(C(=O)O)CC[C@@]3(C)[C@@H](CC[C@H]4[C@]5(C)CC[C@@H](O)C(C)(C)[C@H]5CC[C@@]43C)[C@H]12 (stereo in doubt) [Betulinic acid (9), betulinic acid] | greater inhibitory effects on MMP-13 expression compared to MMP-2 expression; also recorded: preferentially inhibit MMP-13 expression compared to MMP-2 expression | –
– | – | NC(=O)c1ccc(-c2nc(-c3ccc4c(c3)OCO4)c(-c3ccccn3)[nH]2)cc1 [SB431542, reference compound] | – | able to inhibit
5.66 | 6.40 | CCc1oc2ccccc2c1C(=O)c1cc(Br)c(O)c(Br)c1 [Benzobromarone (8), (3,5-dibromo-4-hydroxyphenyl)(2-ethylbenzofuran-3-yl)methanone] | greater inhibitory effects on MMP-13 expression compared to MMP-2 expression; also recorded: preferentially inhibit MMP-13 expression compared to MMP-2 expression | –
